# According to ChEMBL document CHEMBL1129104, “Synthesis and evaluation of 2-(biphenylmethyl)glutaric acid amide derivatives as neutral endopeptidase inhibitors” (Bioorg Med Chem Lett, 1996):
# Biological target: Neprilysin (Homo sapiens, UniProt P08473)
# Assay: In vitro inhibition of Neutral Endopeptidase
# Sequence of Neprilysin (P08473 whole entry): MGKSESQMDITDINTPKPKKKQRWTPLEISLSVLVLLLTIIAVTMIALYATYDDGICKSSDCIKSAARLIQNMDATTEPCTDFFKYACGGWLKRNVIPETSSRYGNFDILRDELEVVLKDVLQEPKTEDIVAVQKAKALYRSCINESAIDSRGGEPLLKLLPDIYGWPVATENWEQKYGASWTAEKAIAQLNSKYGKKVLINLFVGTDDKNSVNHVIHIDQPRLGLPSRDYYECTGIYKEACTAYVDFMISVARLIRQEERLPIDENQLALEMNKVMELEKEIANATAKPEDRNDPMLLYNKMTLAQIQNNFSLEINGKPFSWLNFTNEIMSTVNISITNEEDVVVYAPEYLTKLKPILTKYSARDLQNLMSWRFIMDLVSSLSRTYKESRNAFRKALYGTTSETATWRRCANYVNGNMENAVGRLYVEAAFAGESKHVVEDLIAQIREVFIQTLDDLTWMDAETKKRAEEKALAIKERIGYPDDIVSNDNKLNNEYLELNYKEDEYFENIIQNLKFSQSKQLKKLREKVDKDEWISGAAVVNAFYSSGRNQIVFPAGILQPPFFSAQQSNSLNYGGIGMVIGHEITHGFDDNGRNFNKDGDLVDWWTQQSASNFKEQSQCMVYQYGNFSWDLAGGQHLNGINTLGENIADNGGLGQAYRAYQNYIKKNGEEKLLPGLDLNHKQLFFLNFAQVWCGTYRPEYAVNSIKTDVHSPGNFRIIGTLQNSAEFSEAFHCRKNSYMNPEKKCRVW
row,Structure (SMILES),IC50 [nM]
1,COCCOCC(CC1(C(=O)N[C@H]2CC[C@@H](C(=O)O)CC2)CCCC1)C(=O)Oc1ccc2c(c1)CCC2 (some centres not stated),65
2,CC(C[C@@H](Cc1ccc(-c2ccccc2)cc1)C(=O)Nc1nc(CC(=O)O)cs1)C(=O)O (some centres not stated),58
3,O=C(O)Cc1csc(NC(=O)[C@H](Cc2ccc(-c3ccccc3)cc2)C[C@H](COc2ccccc2)C(=O)O)n1,3.3
4,O=C(O)Cc1csc(NC(=O)[C@H](Cc2ccc(-c3ccccc3)cc2)C[C@@H](COc2ccccc2)C(=O)O)n1,0.69
5,O=C(O)CC[C@@H](Cc1ccc(-c2ccccc2)cc1)C(=O)Nc1nc(CC(=O)O)cs1,122
6,"CCCCC(C[C@@H](Cc1ccc(-c2ccccc2)cc1)C(=O)Nc1nc(CC(=O)O)cs1)C(=O)O (single isomer, unassigned; isomer A)",10
7,CCCCC(C[C@@H](Cc1ccc(-c2ccccc2)cc1)C(=O)Nc1nc(CC(=O)O)cs1)C(=O)O (stereo in doubt),9.8

# Further molecules by falling IC50, results first:
row,IC50 [nM],Structure (SMILES)
1,92,O=C(O)Cc1nnc(NC(=O)[C@H](Cc2ccc(-c3ccccc3)cc2)CC(COc2ccccc2)C(=O)O)s1 (some centres not stated)
2,19,O=C(O)C(COc1ccccc1)C[C@@H](Cc1ccc(-c2ccccc2)cc1)C(=O)NCc1nn[nH]n1 (some centres not stated)
3,7.4,O=C(O)C(COc1ccccc1)C[C@@H](Cc1ccc(-c2ccccc2)cc1)C(=O)Nc1nnn[nH]1 (some centres not stated)
4,5.9,O=C(O)CNC(=O)[C@H](Cc1ccc(-c2ccccc2)cc1)C[C@H](COc1ccccc1)C(=O)O
5,3.2,O=C(O)CNC(=O)[C@H](Cc1ccc(-c2ccccc2)cc1)C[C@@H](COc1ccccc1)C(=O)O
